Legend:
Assay in all cases: relative viability (nuclei count vs DMSO), 5 days (fraction); higher = more cells survive
[1] = compound: N#CC1(c2ccc(NC(=O)c3cccnc3NCc3ccncc3)cc2)CCCC1 [Apatinib] + CCNC(=O)c1noc(-c2cc(C(C)C)c(O)cc2O)c1-c1ccc(CN2CCOCC2)cc1 [Luminespib] (partner 0.01 µM)
Procedure, shortened: (§1)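 Five library-drug doses in √10 steps were combined with a fixed anchor-drug dose, or a single drug was given alone, by pin tool to lung cancer cell lines in 1536-well plates the day after seeding. Nuclei were stained and counted after 5 days. Relative viability is the nuclei count in treated wells over that in vehicle wells, taken as the median of duplicate plates.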

[2] = compound: N#CC1(c2ccc(NC(=O)c3cccnc3NCc3ccncc3)cc2)CCCC1 [Apatinib] + Cc1cc(Nc2cc(N3CCN(C)CC3)nc(Sc3ccc(NC(=O)C4CC4)cc3)n2)n[nH]1 [Tozasertib] (partner 0.1 µM)
Procedure, shortened: as §1

[3] = compound: CN(C)C(=N)NC(=N)N [Metformin] + O=C(CCCCCCC(=O)Nc1ccccc1)NO [Vorinostat] (partner 1 µM)
Procedure, shortened: as §1

[4] = compound: N#CC1(c2ccc(NC(=O)c3cccnc3NCc3ccncc3)cc2)CCCC1 [Apatinib] + O=C(c1cc(Cc2n[nH]c(=O)c3ccccc23)ccc1F)N1CCN(C(=O)C2CC2)CC1 [Olaparib] (partner 8 µM)
Procedure, shortened: as §1

Row | Cell Line | relative viability ([1]; first compound 0.08 µM) | relative viability ([1]; first compound 0.253 µM) | relative viability ([1]; first compound 0.8 µM) | relative viability ([1]; first compound 2.53 µM) | relative viability ([1]; first compound 8 µM) | relative viability ([2]; first compound 0.08 µM) | relative viability ([2]; first compound 0.253 µM) | relative viability ([2]; first compound 0.8 µM) | relative viability ([2]; first compound 2.53 µM) | relative viability ([2]; first compound 8 µM) | relative viability ([3]; first compound 10 µM) | relative viability ([3]; first compound 31.62 µM) | relative viability ([3]; first compound 100 µM) | relative viability ([3]; first compound 316.23 µM) | relative viability ([3]; first compound 1000 µM) | relative viability ([4]; first compound 0.08 µM) | relative viability ([4]; first compound 0.253 µM) | relative viability ([4]; first compound 0.8 µM) | relative viability ([4]; first compound 2.53 µM) | relative viability ([4]; first compound 8 µM)
1 | NCI-H1623 | 0.402 | 0.429 | 0.465 | 0.461 | 0.476 | 0.45 | 0.454 | 0.451 | 0.417 | 0.407 |  |  |  |  |  |  |  |  |  | 
2 | HCC-15 | 0.364 | 0.241 | 0.302 | 0.317 | 0.316 | 0.376 | 0.48 | 0.357 | 0.248 | 0.163 | 0.84 | 0.849 | 0.959 | 0.77 | 0.95 | 0.657 | 0.76 | 0.686 | 0.615 | 0.54
3 | NCI-H441 | 0.261 | 0.296 | 0.253 | 0.406 | 0.308 | 0.672 | 0.569 | 0.538 | 0.533 | 0.428 |  | 0.513 | 0.69 | 0.51 | 0.866 | 0.684 | 0.612 | 0.505 | 0.561 | 0.367
4 | NCI-H1993 | 0.885 | 0.906 | 0.886 | 0.757 | 0.673 | 0.637 | 0.619 | 0.605 | 0.583 | 0.595 | 0.585 | 0.6 | 0.646 | 0.608 | 0.921 | 0.991 | 1.05 | 1.05 | 0.984 | 1.04
5 | NCI-H1915 | 0.891 | 0.852 | 0.737 | 0.692 | 0.544 | 0.422 | 0.445 | 0.43 | 0.35 | 0.267 |  | 0.499 | 0.498 | 0.46 | 0.517 | 0.262 | 0.257 | 0.266 | 0.264 | 0.239
6 | ABC-1 |  | 0.907 | 0.646 | 0.554 | 0.553 |  | 0.177 | 0.165 | 0.178 | 0.191 |  | 0.953 | 1.1 | 1.08 | 0.332 |  | 0.957 | 0.626 | 0.769 | 0.638
7 | NCI-H2087 | 0.186 | 0.183 | 0.185 | 0.135 | 0.149 | 0.241 | 0.223 | 0.215 | 0.179 | 0.143 | 0.595 | 0.657 | 0.637 | 0.567 | 0.671 | 0.633 | 0.653 | 0.541 | 0.645 | 0.493
8 | NCI-H1755 | 0.295 | 0.695 | 0.524 | 0.491 | 0.479 | 0.64 | 0.542 | 0.529 | 0.506 | 0.447 | 0.579 | 0.629 | 0.711 | 0.657 | 0.763 | 0.846 | 0.892 | 0.835 | 0.876 | 0.753
9 | HCC-366 |  |  |  |  |  | 0.11 | 0.0735 | 0.0616 | 0.0574 | 0.0476 | 0.201 | 0.431 | 0.282 | 0.326 | 0.472 | 0.435 | 0.372 | 0.249 | 0.292 | 0.245
10 | NCI-H2170 | 0.841 | 0.649 | 0.609 | 0.676 | 0.621 | 0.86 | 0.879 | 0.677 | 0.652 | 0.51 | 0.55 | 0.777 | 0.79 | 0.813 | 0.795 | 0.617 | 0.623 | 0.638 | 0.49 | 0.485
11 | NCI-H1792 | 0.495 | 0.521 | 0.43 | 0.308 | 0.274 |  |  |  |  |  |  |  |  |  |  | 0.416 | 0.588 | 0.341 | 0.224 | 0.216
12 | SW 1573 | 0.318 | 0.184 | 0.183 | 0.162 | 0.195 | 0.165 | 0.196 | 0.193 | 0.185 | 0.183 | 0.724 | 0.722 | 0.68 | 0.701 | 0.755 | 0.586 | 0.506 | 0.463 | 0.325 | 0.357
13 | HCC-827 | 0.765 | 0.704 | 0.391 | 0.777 | 0.566 | 0.381 | 0.388 | 0.43 | 0.413 | 0.311 | 0.483 | 0.84 | 1.02 | 0.776 | 0.943 | 0.68 | 0.628 | 0.644 | 0.54 | 0.561
14 | NCI-H358 | 0.246 | 0.368 | 0.684 | 0.382 | 0.236 | 0.113 | 0.103 | 0.0953 | 0.108 | 0.0888 | 0.546 | 0.584 | 0.577 | 0.578 | 0.525 | 0.681 | 0.559 | 0.553 | 0.569 | 0.453
15 | Calu-6 |  |  |  |  |  |  |  |  |  |  |  |  |  |  |  | 0.618 | 0.648 | 0.541 | 0.426 | 0.393
16 | LOU-NH91 | 0.354 | 0.363 | 0.386 | 0.356 | 0.354 | 0.741 | 0.729 | 0.618 | 0.601 | 0.546 | 0.86 | 0.852 | 0.839 | 0.925 | 0.833 | 0.976 | 0.885 | 0.783 | 0.87 | 0.825
17 | CAL-12T | 0.565 | 0.315 | 0.261 | 0.882 | 0.661 | 0.298 | 0.34 | 0.241 | 0.198 | 0.191 | 0.729 | 0.742 | 0.585 | 0.691 | 0.743 | 0.723 | 0.673 | 0.647 | 0.638 | 0.583
18 | IA-LM |  |  |  |  |  |  |  |  |  |  | 1.01 | 1.04 | 1.03 | 0.901 | 0.962 | 0.765 | 0.766 | 0.769 | 0.607 | 0.396
19 | NCI-H1703 |  |  |  |  |  |  |  |  |  |  |  |  |  |  |  | 0.512 | 0.21 | 0.173 | 0.159 | 0.138
